Consider one compound from patent US20100130514A1, “FUSED HETEROCYCLIC DERIVATIVE, PHARMACEUTICAL COMPOSITION COMPRISING THE DERIVATIVE, AND USE OF THE COMPOSITION FOR MEDICAL PURPOSES” (Kissei Pharmaceutical Co., Ltd., priority 2007, published 2010).

The target in one data set is T1, human GnRHR1 (Homo sapiens, UniProt P30968).
T1 construct: expressed in transfected cells
T1 sequence (P30968 1-328): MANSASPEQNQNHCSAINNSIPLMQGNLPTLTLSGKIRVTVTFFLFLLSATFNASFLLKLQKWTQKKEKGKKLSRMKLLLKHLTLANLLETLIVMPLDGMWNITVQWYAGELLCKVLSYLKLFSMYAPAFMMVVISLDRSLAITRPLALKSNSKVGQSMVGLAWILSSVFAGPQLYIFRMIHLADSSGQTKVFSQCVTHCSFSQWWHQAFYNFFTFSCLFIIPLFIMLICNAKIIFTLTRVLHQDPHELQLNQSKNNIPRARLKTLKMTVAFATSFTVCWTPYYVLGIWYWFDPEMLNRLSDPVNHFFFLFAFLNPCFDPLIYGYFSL
Put plainly: Inhibitory effect for the change of calcium levels in GnRH-stimulated cells (hGnRHR1#1 HEK293 cells). The format is cell-based. The conditions noted are these: HEK293 cells stably expressing human GnRHR1; 10 nM GnRH added; FLIPR Calcium Assay Kit; read-out: IC50 (drug concentration at which 50% GnRH-stimulated intracellular calcium flux was inhibited). From the text: 1) Cloning and Construction of the Vector Expressing Human GnRH Receptor1 (GnRHR1)
Using cDNA derived from human pituitary (BECTON DICKINSON) as a template, the DNA fragment coding 45 to 1115 by of human GnRHR1 (Accession No. L03380), which was reported by Kakar et al., was amplified by PCR method and inserted into the multi-cloning site of pcDNA3.1(+) (Invitrogen). The DNA sequence inserted was perfectly matched to the previously reported sequence.
2) Establishment of Cell Line Stably Expressing Human GnRH Receptor1 HEK293 Cells
The expression vector of human GnRHR1 gene, was digested by XhoI into a linear DNA. The linear DNA was transfected into HEK293 cells by means of lipofection (Lipofectamine2000: Invitrogen). Neomycin resistant cell lines were selected by culture in the medium containing G418 (Invitrogen) at 1 mg/mL, and then the change of calcium levels in GnRH-stimulated cells was measured by the method described below.
3) Assay of Inhibitory Effect for the Change of Calcium Levels in GnRH-Stimulated Cells
Antagonizing effect of compounds for human GnRHR1 was evaluated by depression of calcium levels in GnRH-stimulated cells. hGnRHR1#1 cells were seeded into a 96-well culture plate at a density of 1.5×10^5 cells/well and cultured for a day. […] Then, intracellular calcium levels were determined under the following condition by using FLEX STATION (Molecular Devices). […]
(A change in cytosolic calcium serves as a functional read-out for many receptors and channels.)

Data set [1] is described as follows: Assay for oral absorbability: plasma drug concentration after oral administration. Conditions: overnight fasted male SD rats, 3 mg/kg. The format is in vivo. How it is done: Assay for Oral Absorbability
1) Preparation of the Samples for Measurement of the Drug Concentration After Oral Administration
As experimental animal, overnight fasted SD rats (Charles River, male, 7 weeks of age, 170-210 g) were used. Three mg of a test compound was dissolved by adding 0.2 mL of N,N-dimethylacetoamide, 9.794 mL of 0.5% aqueous methylcellulose solution and 0.006 mL of 2N NaOH, and then 0.3 mg/mL solution was prepared. The body weights of rats were measured, and the solution of the test compound was administered orally at the dose of 10 mL/kg (3 mg/kg). The oral administration was performed with gastric tube for rat and 2.5 mL syringe. The sampling times for collection of blood were 15, 30, 60, 120, 240 and 360 minutes after the oral administration. The blood was centrifuged, and the plasma was used as the sample for measurement of the drug concentration in blood.
2) Measurement of the Drug Concentration
To 0.025 mL of the plasma obtained in 1) described above, 0.1 mL of an adequate internal standard material was added according to the usual method, and then deproteinization was performed by adding 0.875 mL of acetonitrile. After centrifugation, 0.005 mL of the supernatant was injected into LC-MS/MS. The drug concentration in plasma was measured by LC-MS/MS method under the conditions as follows. […]

Each structure is given as a SMILES string.

Turning to `COC(=O)N(C)CCOc1ccc(F)c(F)c1COc1ccc(F)c(-n2c(=O)[nH]c3csc(C(=O)O)c3c2=O)c1` [Example 8], the IC50 at human GnRHR1 is 91 nM. In data set [1] (360 minutes), this compound registered a C360 (plasma drug concentration at 360 minutes after administration) of 490 ng/mL. The Cmax in data set [1] (rat, read-out: Cmax (maximum plasma drug concentration)) came out at 2380 ng/mL.
